Target: T1, AMP deaminase 1 (Mus musculus, UniProt Q3V1D3)
T1 sequence (Q3V1D3 whole entry): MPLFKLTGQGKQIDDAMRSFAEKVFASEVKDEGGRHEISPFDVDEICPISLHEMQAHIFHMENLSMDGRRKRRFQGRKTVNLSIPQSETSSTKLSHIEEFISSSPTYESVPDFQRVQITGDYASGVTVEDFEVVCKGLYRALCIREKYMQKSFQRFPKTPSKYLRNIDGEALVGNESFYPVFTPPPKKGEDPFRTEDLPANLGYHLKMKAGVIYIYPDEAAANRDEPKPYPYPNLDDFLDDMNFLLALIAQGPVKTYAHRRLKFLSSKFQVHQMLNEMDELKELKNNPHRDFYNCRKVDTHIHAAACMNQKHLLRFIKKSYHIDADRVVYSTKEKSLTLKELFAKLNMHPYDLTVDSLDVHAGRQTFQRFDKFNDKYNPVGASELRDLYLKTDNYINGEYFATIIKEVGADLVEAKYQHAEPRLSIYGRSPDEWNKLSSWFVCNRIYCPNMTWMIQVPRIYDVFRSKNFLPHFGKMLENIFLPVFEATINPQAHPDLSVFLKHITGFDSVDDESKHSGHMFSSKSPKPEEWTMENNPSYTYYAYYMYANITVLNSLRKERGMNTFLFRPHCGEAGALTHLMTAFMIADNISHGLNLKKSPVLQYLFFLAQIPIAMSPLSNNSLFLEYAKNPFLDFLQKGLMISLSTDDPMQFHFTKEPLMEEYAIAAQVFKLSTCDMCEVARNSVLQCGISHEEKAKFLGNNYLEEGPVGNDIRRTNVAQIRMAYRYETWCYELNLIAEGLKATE
Assay: AMPD Enzymatic Activity Assay
Conditions: pH 7.4

How did the IC50 turn out when `C[C@H](NCc1ccc(-c2ccc(C(=O)O)cn2)cc1)c1cccc2ccncc12` [6-[4-({[(1S)-1-(isoquinolin-8-yl)ethyl]amino}methyl)phenyl]pyridine-3-carboxylic acid (Compound 3)] was run?
The IC50 was 24 nM.

`C[C@@H](NCc1ccc(-c2ccc(C(=O)O)cn2)cc1)c1cccc2ccncc12` [6-[4-({[(1R)-1-(isoquinolin-8-yl)ethyl]amino}methyl)phenyl]pyridine-3-carboxylic acid (Compound 2)] was tested. Which IC50 did it give?
The IC50 was 4500 nM.

From BindingDB's records for doi:10.1016/j.chembiol.2014.09.011 (Astrazeneca R&D, 2014)
